Assay type in all cases: biochemical
The target of experiment [1] is T1, PI3K α (p110α/p85α) (Homo sapiens, UniProt P42336).
T1 construct: purchased Upstate / Millipore Corporation
Description: PI 3-Kinase (human) HTRF assay, PI3K α. The following applies: read-out: PI3K α IC50.

The target in experiment [2] is T2, PI3K β (p110β/p85α) (Homo sapiens, UniProt P42338).
T2 construct: purchased Upstate / Millipore Corporation
Nature of the experiment: PI 3-Kinase (human) HTRF assay, PI3K β. The following applies: read-out: PI3K β IC50.
Description: Briefly, the assay is a time resolved FRET assay that indirectly measures PIP3 product formed by the activity of a PI3-K. The kinase reaction is performed in a microtiter plate (e.g., a 384 well microtiter plate). The total reaction volume is approximately 20 ul per well. In the first step, each well receives 2 ul of test compound in 20% dimethylsulphoxide resulting in a 2% DMSO final concentration. […] The plate is sealed and incubated for 15 minutes at room temperature. […] The plate is sealed and incubated for 1 hour at room temperature. The reaction is stopped by adding 5 ul of Stop Solution per well and then 5 ul of Detection Mix is added per well. The plate is sealed, incubated for 1 hour at room temperature, and then read on an appropriate plate reader. Data is analyzed and IC50s are generated using GraphPad Prism 5.

In experiment [3] the target is T3, PI3K γ (p110γ) (Homo sapiens, UniProt P48736).
T3 construct: purchased Upstate / Millipore Corporation
Description: PI 3-Kinase (human) HTRF assay, PI3K γ. The following applies: read-out: PI3K γ IC50.

In experiment [4] the target is T4, PI3K δ (Homo sapiens, UniProt O00329).
T4 construct: purchased Upstate / Millipore Corporation
Description: PI 3-Kinase (human) HTRF assay, PI3K δ. The following applies: read-out: PI3K δ IC50.

Some results are limits rather than exact numbers.

T3 sequence (P48736 whole entry): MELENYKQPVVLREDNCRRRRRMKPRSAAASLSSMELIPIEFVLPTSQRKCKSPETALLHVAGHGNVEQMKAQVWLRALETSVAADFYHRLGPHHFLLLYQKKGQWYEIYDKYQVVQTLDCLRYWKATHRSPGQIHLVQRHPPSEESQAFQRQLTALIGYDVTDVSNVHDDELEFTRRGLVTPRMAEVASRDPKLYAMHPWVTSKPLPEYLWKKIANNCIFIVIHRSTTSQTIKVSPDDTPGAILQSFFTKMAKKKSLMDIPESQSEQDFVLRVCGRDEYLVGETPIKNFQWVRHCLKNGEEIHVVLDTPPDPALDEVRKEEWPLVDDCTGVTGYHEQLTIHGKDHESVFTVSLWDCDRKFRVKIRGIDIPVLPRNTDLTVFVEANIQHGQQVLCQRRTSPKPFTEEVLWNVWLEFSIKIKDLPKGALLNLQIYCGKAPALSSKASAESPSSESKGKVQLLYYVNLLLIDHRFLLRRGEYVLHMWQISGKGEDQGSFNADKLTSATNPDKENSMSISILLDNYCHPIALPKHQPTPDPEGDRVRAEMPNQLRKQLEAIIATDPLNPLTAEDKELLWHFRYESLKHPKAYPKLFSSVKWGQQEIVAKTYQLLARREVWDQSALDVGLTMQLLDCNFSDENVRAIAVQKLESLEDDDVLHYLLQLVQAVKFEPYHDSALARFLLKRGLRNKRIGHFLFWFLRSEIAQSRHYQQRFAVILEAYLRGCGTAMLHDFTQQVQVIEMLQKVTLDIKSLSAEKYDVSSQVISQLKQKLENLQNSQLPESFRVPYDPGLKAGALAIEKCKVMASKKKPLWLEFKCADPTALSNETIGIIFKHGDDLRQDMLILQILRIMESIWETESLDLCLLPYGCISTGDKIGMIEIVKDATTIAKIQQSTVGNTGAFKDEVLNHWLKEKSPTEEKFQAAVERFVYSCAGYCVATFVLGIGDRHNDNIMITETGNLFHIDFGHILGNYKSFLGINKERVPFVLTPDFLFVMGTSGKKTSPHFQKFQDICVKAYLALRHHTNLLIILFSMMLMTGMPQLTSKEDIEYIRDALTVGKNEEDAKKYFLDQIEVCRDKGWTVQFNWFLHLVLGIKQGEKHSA
T1 sequence (P42336 whole entry): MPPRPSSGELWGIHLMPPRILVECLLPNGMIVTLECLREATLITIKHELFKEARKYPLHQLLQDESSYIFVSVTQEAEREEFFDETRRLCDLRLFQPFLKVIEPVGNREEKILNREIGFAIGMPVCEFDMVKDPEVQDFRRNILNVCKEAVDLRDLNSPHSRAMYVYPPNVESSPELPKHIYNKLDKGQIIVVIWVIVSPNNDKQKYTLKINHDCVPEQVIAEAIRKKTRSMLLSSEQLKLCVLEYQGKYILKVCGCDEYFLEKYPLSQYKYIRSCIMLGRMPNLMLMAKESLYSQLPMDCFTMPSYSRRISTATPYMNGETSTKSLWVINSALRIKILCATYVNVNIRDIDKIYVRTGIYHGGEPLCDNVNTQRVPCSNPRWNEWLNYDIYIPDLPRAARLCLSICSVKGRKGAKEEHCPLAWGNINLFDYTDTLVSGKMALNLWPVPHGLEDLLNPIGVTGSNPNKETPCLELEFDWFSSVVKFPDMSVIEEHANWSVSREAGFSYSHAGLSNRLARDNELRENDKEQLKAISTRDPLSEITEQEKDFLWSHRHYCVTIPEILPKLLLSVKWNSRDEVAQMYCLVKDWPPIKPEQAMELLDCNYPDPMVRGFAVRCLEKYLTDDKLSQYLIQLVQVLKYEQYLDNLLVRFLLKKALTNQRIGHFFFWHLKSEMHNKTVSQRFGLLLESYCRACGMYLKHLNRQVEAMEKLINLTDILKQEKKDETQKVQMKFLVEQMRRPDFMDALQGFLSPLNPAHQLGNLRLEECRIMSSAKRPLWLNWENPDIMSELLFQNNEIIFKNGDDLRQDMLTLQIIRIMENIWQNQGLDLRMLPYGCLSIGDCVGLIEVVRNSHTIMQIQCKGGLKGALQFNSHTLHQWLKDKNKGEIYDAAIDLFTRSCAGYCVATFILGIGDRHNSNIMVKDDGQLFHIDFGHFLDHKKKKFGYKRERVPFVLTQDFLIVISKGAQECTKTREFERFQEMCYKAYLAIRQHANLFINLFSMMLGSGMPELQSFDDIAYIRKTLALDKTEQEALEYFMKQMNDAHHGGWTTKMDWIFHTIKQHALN
T1 sequence (P27986 whole entry partner): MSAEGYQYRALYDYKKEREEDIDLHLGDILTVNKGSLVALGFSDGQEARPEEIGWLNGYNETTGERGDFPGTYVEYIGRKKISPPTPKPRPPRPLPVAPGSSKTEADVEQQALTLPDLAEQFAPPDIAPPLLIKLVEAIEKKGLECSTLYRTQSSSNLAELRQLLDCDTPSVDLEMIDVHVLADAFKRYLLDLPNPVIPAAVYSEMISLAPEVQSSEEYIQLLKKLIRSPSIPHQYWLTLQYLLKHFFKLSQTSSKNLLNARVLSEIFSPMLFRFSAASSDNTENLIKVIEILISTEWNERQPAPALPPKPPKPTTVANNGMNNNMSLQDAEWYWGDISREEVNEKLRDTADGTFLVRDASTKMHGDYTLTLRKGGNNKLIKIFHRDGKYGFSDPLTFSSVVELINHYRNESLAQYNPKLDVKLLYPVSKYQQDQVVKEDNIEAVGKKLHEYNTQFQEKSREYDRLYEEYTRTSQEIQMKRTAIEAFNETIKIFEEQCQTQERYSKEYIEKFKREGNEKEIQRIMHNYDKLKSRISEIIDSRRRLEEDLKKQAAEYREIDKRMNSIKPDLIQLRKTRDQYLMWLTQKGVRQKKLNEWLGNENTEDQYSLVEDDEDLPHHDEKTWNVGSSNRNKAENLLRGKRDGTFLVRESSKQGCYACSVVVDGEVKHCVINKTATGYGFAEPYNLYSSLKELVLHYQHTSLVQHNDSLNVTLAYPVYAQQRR
T2 sequence (P42338 whole entry): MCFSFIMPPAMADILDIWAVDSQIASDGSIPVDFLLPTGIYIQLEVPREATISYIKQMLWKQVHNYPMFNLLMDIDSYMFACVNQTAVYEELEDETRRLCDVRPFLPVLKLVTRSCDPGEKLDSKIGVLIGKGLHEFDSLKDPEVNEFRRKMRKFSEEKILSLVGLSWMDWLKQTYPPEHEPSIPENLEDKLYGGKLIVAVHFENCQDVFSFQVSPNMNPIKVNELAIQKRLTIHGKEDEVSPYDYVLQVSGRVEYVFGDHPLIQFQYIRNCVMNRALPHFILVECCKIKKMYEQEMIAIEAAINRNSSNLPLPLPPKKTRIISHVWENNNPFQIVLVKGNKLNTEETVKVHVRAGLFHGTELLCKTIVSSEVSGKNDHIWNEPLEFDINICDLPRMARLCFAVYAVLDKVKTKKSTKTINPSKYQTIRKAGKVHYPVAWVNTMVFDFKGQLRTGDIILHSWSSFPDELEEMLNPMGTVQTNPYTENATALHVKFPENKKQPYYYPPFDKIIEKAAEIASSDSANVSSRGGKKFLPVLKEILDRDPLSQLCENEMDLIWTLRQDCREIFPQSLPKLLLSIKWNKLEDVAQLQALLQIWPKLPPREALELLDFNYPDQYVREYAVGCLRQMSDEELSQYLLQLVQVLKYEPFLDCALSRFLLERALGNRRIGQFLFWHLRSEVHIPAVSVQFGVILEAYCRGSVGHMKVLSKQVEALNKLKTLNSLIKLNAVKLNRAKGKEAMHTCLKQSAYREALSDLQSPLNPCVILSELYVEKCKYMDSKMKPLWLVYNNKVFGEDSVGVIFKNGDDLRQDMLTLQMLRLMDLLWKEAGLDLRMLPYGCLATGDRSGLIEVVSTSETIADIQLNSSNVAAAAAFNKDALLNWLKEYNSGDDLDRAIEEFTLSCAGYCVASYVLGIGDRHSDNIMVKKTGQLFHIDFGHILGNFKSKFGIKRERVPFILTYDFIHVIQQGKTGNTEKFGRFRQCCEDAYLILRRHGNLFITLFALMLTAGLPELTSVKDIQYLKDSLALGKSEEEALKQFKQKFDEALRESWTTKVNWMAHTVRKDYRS
T2 sequence (P27986 whole entry partner): as the sequence (P27986 whole entry partner) above
T4 sequence (O00329 whole entry): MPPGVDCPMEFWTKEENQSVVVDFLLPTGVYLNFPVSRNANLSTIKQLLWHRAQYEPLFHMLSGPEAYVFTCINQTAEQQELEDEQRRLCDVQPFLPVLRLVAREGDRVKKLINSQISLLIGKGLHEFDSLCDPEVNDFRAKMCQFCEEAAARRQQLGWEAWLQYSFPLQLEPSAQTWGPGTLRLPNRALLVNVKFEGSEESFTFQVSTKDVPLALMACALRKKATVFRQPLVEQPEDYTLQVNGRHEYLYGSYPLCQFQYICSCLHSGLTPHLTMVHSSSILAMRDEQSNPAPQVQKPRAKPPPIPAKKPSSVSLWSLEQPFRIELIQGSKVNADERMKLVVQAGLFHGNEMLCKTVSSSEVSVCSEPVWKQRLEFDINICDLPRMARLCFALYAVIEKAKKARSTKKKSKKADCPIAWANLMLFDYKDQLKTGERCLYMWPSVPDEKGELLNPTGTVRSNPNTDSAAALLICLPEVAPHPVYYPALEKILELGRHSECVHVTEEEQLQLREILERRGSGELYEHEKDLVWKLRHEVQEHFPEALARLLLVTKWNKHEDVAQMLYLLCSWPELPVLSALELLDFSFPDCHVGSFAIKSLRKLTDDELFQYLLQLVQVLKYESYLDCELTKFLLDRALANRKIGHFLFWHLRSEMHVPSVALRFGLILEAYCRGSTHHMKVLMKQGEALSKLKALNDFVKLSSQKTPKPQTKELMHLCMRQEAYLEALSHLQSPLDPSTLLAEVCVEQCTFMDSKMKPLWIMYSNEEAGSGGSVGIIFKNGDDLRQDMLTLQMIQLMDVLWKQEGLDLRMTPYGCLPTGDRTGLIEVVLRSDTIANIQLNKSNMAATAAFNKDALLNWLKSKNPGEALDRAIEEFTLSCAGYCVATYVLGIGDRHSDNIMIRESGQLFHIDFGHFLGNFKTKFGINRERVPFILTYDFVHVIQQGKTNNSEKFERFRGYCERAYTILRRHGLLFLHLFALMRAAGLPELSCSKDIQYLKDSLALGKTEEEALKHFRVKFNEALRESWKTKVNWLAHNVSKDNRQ
T4 sequence (P27986 whole entry partner): as the sequence (P27986 whole entry partner) above

Regarding `C[C@@H](N)C(=O)N1CCN(c2cnc3ccc(-c4ccc5oc(N)nc5c4)cc3n2)CC1` [Compound 208], the IC50 in experiment [1] was below 100 nM; in experiment [2] it was below 1 µM; in experiment [3], below 10 µM; in experiment [4] it was below 1 µM.
Take `COc1ncc(-c2ccc3ncn(C4CCN(C(C)C)CC4)c(=O)c3c2)cc1NS(=O)(=O)c1ccccc1` [Compound 522]: the IC50 is below 100 nM in experiment [1], below 0.1 µM in experiment [2], below 0.1 µM in experiment [3] and below 0.1 µM in experiment [4].
For the compound `Nc1nc2cc(-c3ccc4ncc(C(=O)N5CCC(O)CC5)n4c3)ccc2o1` [Compound 162], the IC50 was below 1000 nM in experiment [1], above 10 µM in experiment [2], below 10 µM in experiment [3] and above 10 µM in experiment [4].
As to `CN1CCN(n2cnc3ccc(-c4ccc5oc(N)nc5c4)cc3c2=O)CC1` [Compound 446], the IC50 in experiment [1] is below 1000 nM; in experiment [2] it was above 10 µM; in experiment [3] it was above 10 µM; in experiment [4], above 10 µM.
Turning to `CN1CCC(Nc2nc3cc(-c4ccc5ncc(C(=O)N6CCOCC6)n5c4)ccc3o2)CC1` [Compound 408], the IC50 is above 10000 nM in experiment [1], above 10 µM in experiment [2], above 10 µM in experiment [3] and above 10 µM in experiment [4].
Turning to `C[C@H]1CN(c2cnc3ccc(-c4ccc5sc(N)nc5c4)cc3n2)CCN1` [Compound 307], the IC50 in experiment [1] was below 1000 nM; in experiment [2] it was below 1 µM; in experiment [3], above 10 µM; in experiment [4], above 10 µM.
With `Nc1nc2cc(-c3ccc4ncc(N5CCCC5)nc4c3)ccc2o1` [Compound 176], the IC50 is below 100 nM in experiment [1], below 1 µM in experiment [2], below 0.1 µM in experiment [3] and below 1 µM in experiment [4].
For the compound `CC1CN(C(=O)c2cnc3ccc(-c4ccc5oc(N)nc5c4)cn23)CCO1` (centres unmarked) [Compound 201], the 50% inhibitory concentration (IC50) in experiment [1] is below 100 nM; in experiment [2], below 10 µM; in experiment [3], below 10 µM; in experiment [4], above 10 µM.
As to `CCN(CC)CCCNc1cnc2ccc(-c3ccc4oc(N)nc4c3)cc2n1` [Compound 220], the concentration for half-maximal inhibition (IC50) in experiment [1] was below 100 nM; in experiment [2], below 1 µM; in experiment [3] it was below 1 µM; in experiment [4], below 0.1 µM.
Turning to `CNS(=O)(=O)c1cccc(-c2ccc3ncc(C(=O)N4CCOCC4)n3c2)c1` [Compound 442], the IC50 was above 10000 nM in experiment [1], above 10 µM in experiment [2], above 10 µM in experiment [3] and above 10 µM in experiment [4].
Regarding `CN1CCN(C(=O)c2cnc3ccc(-c4ccc5nc(N)sc5c4)cn23)CC1` [Compound 146], the IC50 in experiment [1] was below 10000 nM; in experiment [2], below 10 µM; in experiment [3], above 10 µM; in experiment [4], above 10 µM.
Consider `CC(C)(C#N)c1ccc(Nc2ncnc3ccc(-c4ccc5oc(N)nc5c4)cc23)cc1` [Compound 102], for which the IC50 in experiment [1] was below 100 nM; in experiment [2], below 1 µM; in experiment [3] it was below 0.1 µM; in experiment [4], below 1 µM.
On to `CC(=O)N1CCC(Nc2ncnc3ccc(-c4ccc5oc(N)nc5c4)nc23)CC1` [Compound 211], for which the IC50 in experiment [1] is below 100 nM; in experiment [2], below 0.1 µM; in experiment [3], below 0.1 µM; in experiment [4], below 0.1 µM.
For `COc1ncc(-c2ccc3ncc(C(=O)N4CCOCC4)n3c2)cc1NS(C)(=O)=O` [Compound 416], the IC50 in experiment [1] was below 100 nM; in experiment [2], below 10 µM; in experiment [3] it was below 1 µM; in experiment [4] it was below 10 µM.
`NC(=O)[C@@H]1CCCN1C(=O)c1cnc2ccc(-c3ccc4oc(N)nc4c3)cn12` [Compound 259]: the IC50 was below 1000 nM in experiment [1], above 10 µM in experiment [2], below 10 µM in experiment [3] and above 10 µM in experiment [4].
As for `CN1CCN(CCCn2cnc3ccc(-c4ccc5oc(N)nc5c4)cc3c2=O)CC1` [Compound 291], the IC50 in experiment [1] was below 1000 nM; in experiment [2], above 10 µM; in experiment [3], above 10 µM; in experiment [4], above 10 µM.
As for `Nc1nc2cc(-c3ccc4ncc(C(=O)N5CCC(F)(F)CC5)n4c3)ccc2o1` [Compound 501], the 50% inhibitory concentration (IC50) in experiment [1] is below 1000 nM; in experiment [2], above 10 µM; in experiment [3], below 10 µM; in experiment [4] it was above 10 µM.
Consider `C[C@H]1CN(C2CN(C(=O)c3cnc4ccc(-c5ccc6oc(N)nc6c5)cn34)C2)CCN1` [Compound 510], for which the IC50 was below 100 nM in experiment [1], below 10 µM in experiment [2], below 10 µM in experiment [3] and below 1 µM in experiment [4].
Regarding `COC1CN(C(=O)c2cnc3ccc(-c4ccc5oc(N)nc5c4)cn23)C1` [Compound 467], the IC50 in experiment [1] is below 100 nM; in experiment [2], below 10 µM; in experiment [3], below 0.1 µM; in experiment [4], below 10 µM.
Regarding `Nc1nc2cc(-c3ccc4ncc(N5CCn6cncc6C5)nc4c3)ccc2o1` [Compound 394], the IC50 is below 100 nM in experiment [1], below 0.1 µM in experiment [2], below 0.1 µM in experiment [3] and below 1 µM in experiment [4].
Turning to `Cc1ccc(-c2cnc3ccc(-c4ccc5oc(N)nc5c4)cc3n2)cn1` [Compound 194], the half-inhibitory concentration (IC50) was below 100 nM in experiment [1], above 10 µM in experiment [2], below 0.1 µM in experiment [3] and above 10 µM in experiment [4].
Take `CS(=O)(=O)CCN1CCC(Nc2cnc3ccc(-c4ccc5oc(N)nc5c4)cc3n2)CC1` [Compound 181]: the IC50 in experiment [1] is below 100 nM; in experiment [2], below 10 µM; in experiment [3], below 0.1 µM; in experiment [4], below 1 µM.
For `CNc1noc2cc(-c3ccc4ncc(C(=O)N5CCOCC5)n4c3)ccc12` [Compound 486] the same measures were below 10000 nM, above 10 µM, below 10 µM and above 10 µM.
For `Nc1noc2ccc(-c3ccc4nccc(-c5ccncc5)c4c3)cc12` [Compound 18] the same measures were below 10000 nM, above 10 µM, below 10 µM and above 10 µM.
For the compound `Nc1nc2cc(-c3ccc4ncc(C(=O)N5CCn6cncc6C5)n4c3)ccc2o1` [Compound 493], the IC50 in experiment [1] is below 100 nM; in experiment [2], below 1 µM; in experiment [3], below 10 µM; in experiment [4] it was above 10 µM.
In the case of `CN1CCN(C(=O)c2cnc3cnc(-c4ccc5oc(N)nc5c4)cn23)CC1` [Compound 123], the IC50 in experiment [1] was below 10000 nM; in experiment [2] it was above 10 µM; in experiment [3], above 10 µM; in experiment [4], above 10 µM.
Take `O=C(c1cnc2ccc(-c3cnc(Cl)c(NS(=O)(=O)c4ccc(F)cc4)c3)cn12)N1CCOCC1` [Compound 457]: the IC50 in experiment [1] is below 100 nM; in experiment [2] it was below 0.1 µM; in experiment [3], below 0.1 µM; in experiment [4] it was below 0.1 µM.
Consider `CN1CCN(C(=O)c2cnc3ccc(-c4ccc5oc(N)nc5c4)cc3n2)CC1` [Compound 157], for which the half-inhibitory concentration (IC50) was below 10000 nM in experiment [1], above 10 µM in experiment [2], above 10 µM in experiment [3] and above 10 µM in experiment [4].
For the compound `Nc1nc2ccc(-c3ccc4nc(N)sc4c3)cc2o1` [Compound 243], the IC50 in experiment [1] was below 1000 nM; in experiment [2], below 0.1 µM; in experiment [3], below 0.1 µM; in experiment [4] it was above 10 µM.

For the origin of these results see patent US20150087627A1, “COMBINATION OF KINASE INHIBITORS AND USES THEREOF” (Intellikine LLC, priority 2011, published 2015).
